The values below come from publication PMC8536124 (International Journal of Molecular Sciences, 2021).

Entries after “also recorded” stand apart in the source; their conditions may differ. Read-outs that look alike come from different tables or passages of the source.

The subject of series [1] is HeLa, MCF-7, HepG2, B16, and A375 cancer cell lines. Also noted: method as in PMID 21496972. The note with it: MCF-7, HepG2, B16, A375; cited from earlier work.
Series [2] deals with CCRF-CEM cell line. Also noted: method as in PMID 27425639. The settings on record: cited from earlier work.
The test system of series [3] is A498. The experiment in a line: NCI-60 screening (SRB). The note with it: A498 renal cancer; 1 dose 10 µM. Format: cell-based, human.
In series [4] the test system is HL-60(TB). The experiment in a line: NCI-60 screening (SRB). Format: cell-based, human. The note with it: HL-60(TB) (Leukemia); 1 dose 10 µM.
The subject of series [5] is Leukemia. In words: NCI-60 screening (SRB), subpanel. The class given is cell-based. The settings on record: leukemia cancer cell lines; 1 dose 10 µM. An excerpt:
(§1) The experimental data allow the assessment of the cytostatic effect, indicated by growth inhibition values ranging between 0 and 100, as well as of the cytotoxic effect, indicated by negative values.
(§2) The mean GI50 (molar concentration of the compound that inhibits 50% net cell growth), TGI (molar concentration of the compound leading to the total inhibition), and LC50 (molar concentration of the compound leading to 50% net cell death (presented in negative logarithm)) values across each cell line are shown in Table 2.
(§3) The selectivity index (SI), calculated as the ratio between the full panel MG_MID60 (μM) of compounds 4, 6, and 9 by their respective subpanels MG_MID of the cell line (μM), was introduced as a quantification tool for the selectivity of each compound in terms of anticancer effect (Table 3).
(§4) Primary anticancer assays were performed according to the NCI protocol, as described elsewhere (see e.g., http://dtp.nci.nih.gov accessed on 1 November 2018). The compounds were added at a single concentration, and the cell cultures were incubated for 48 h. The end point determinations were made with a protein-binding dye, sulforhodamine B (SRB). […] The percentage of growth was evaluated spectrophotometrically versus controls not treated with test agents after 48 h exposure and using SRB protein assay to estimate cell viability or growth. Three antitumor activity dose-response parameters were calculated for each cell line. Furthermore, mean graph midpoints (MG_MID) were calculated for each of the parameters, giving an average activity parameter over all cell lines for the tested compound. For the MG_MID calculation, insensitive cell lines were included with the highest concentration tested.

Series [6] concerns NCI-60 cancer cell line panel. The experiment in a line: NCI-60 screening (SRB), full panel. Format: cell-based, human. The note with it: 1 dose 10 µM; for activity at 10 µM: Homo sapiens, 60 cell lines, 48 h.
From the text: as §1, §2, §3, §4

Series [7] concerns CAKI-1. In words: NCI-60 screening (SRB). Format: cell-based, human. The note with it: CAKI-1 (Renal cancer); 1 dose 10 µM.
The test system of series [8] is LOX IMVI. In words: NCI-60 screening (SRB). The note with it: LOXIMVI (Melanoma); 1 dose 10 µM. The class given is cell-based, human.
In series [9] the test system is HT29 colorectal cancer cells. Details: method as in doi:10.1007/BF02974180, PMID 15694457. The note with it: cited from earlier work.
Series [10] concerns NIH3T3 noncancer murine fibroblast cells. Details: method as in PMID 26044356. The settings on record: NIH3T3 noncancer murine fibroblasts; cited from earlier work.
Series [11] has as its system HCT15 colon cancer cells. Also noted: method as in doi:10.1007/BF02974180, PMID 15694457. The settings on record: cited from earlier work.
Series [12] has as its system KB oral epidermoid cancer cells. Details: method as in doi:10.1007/BF02974180, PMID 15694457. The settings on record: cited from earlier work.
For series [13], the system named is A549 non-small lung cancer cells. Also noted: method as in doi:10.1007/BF02974180, PMID 15694457. The note with it: cited from earlier work.
For series [14], the system named is HONE-1 nasopharyngeal cancer cells. Also noted: method as in doi:10.1007/BF02974180, PMID 15694457. The note with it: cited from earlier work.
Series [15] concerns T-lymphoblastic leukemia, breast adenocarcinoma, and cervical cancer cells. The settings on record: cited from earlier work.

A word on the IC50: it is the concentration that inhibits the measured activity by half. Take “3,23-dihydroxy-17-piperazinyl betulinic amide”: the IC50 in series [1] is below 10 µM.
On to `C=C(C)C1CCC2(C(=O)N3CCNCC3)CCC3(C)C(CCC4C5(C)CCC(O)C(C)(C)C5CCC43C)C12` (centres unmarked) [Betulinic acid piperazinyl amide], for which the half-inhibitory concentration (IC50) in series [2] is 0.8 µM.
`CCN1CCN(C(=O)[C@]23CCC(C)(C)C[C@H]2C2=CC[C@@H]4[C@@]5(C)CCC(=O)C(C)(C)[C@@H]5CC[C@@]4(C)[C@]2(C)CC3)CC1` [Compound 3, N-(3-oxo-olean-12-en-28-oyl)-ethylpiperazine]: the Growth % in series [3] is reported as −7.95%. In [4], the Growth % is given as −35.82%. In series [5], the “growth percentages, range” value is on record as −35.82 to 37.47%. Also, in series [6], the “Positive Cytostatic Effect (cell lines with percent growth 0 to 50 / total)” value is on record as 5/59, the “Positive Cytotoxic Effect (cell lines with percent growth <0 / total)” value is recorded as 7/59 and the “antiproliferative effect in one dose primary screening” value (from here on “antiproliferative effect”) is on record as “moderate growth inhibition activity”. Besides, the activity at 10 µM in series [6] (read-out: Mean Growth, %) came to 46%. In addition, in [6] (read-out: Range of Growth, %), the activity at 10 µM is -35.8 to 80.4%.
Turning to `CCN1CCN(C(=O)[C@]23CCC(C)(C)C[C@H]2C2=CC[C@@H]4[C@@]5(C)C/C(=C/c6ccccn6)C(=O)C(C)(C)[C@@H]5CC[C@@]4(C)[C@]2(C)CC3)CC1` [Compound 5, N-(2-{2-Pyridinylidene}-3-oxoolean-12-en-28-oyl)-ethylpiperazine], the Growth % in [7] stood at 49.25%. Besides, in [6], the “Positive Cytostatic Effect (cell lines with percent growth 0 to 50 / total)” value is given as 0/59, the “Positive Cytotoxic Effect (cell lines with percent growth <0 / total)” value is recorded as 0/59 and the “antiproliferative effect” value is listed as “do not exhibit antiproliferative effects; also recorded: do not induce any significant antiproliferative activity”. The activity at 10 µM in [6] (read-out: Mean Growth, %) came to 86.7%. For the same compound, the activity at 10 µM in [6] (read-out: Range of Growth, %) lay within 49.2 to 115%.
Regarding `CCN1CCN(C(=O)[C@]23CC[C@@H](C)[C@H](C)[C@H]2C2=CC[C@@H]4[C@@]5(C)C/C(=C/c6ccccn6)C(=O)C(C)(C)[C@@H]5CC[C@@]4(C)[C@]2(C)CC3)CC1` [Compound 8], the Growth % in [8] was 74.76%. Moreover, in series [6], the “Positive Cytostatic Effect (cell lines with percent growth 0 to 50 / total)” value was 0/59, the “Positive Cytotoxic Effect (cell lines with percent growth <0 / total)” value is recorded as 0/59 and the “antiproliferative effect” value is reported as “do not exhibit antiproliferative effects; also recorded: do not induce any significant antiproliferative activity”. Also, the activity at 10 µM in [6] (read-out: Mean Growth, %) is 92.4%. Moreover, the activity at 10 µM in [6] (read-out: Range of Growth, %) is 74.8 to 108%.
For the compound `C[C@H]1[C@H](C)CC[C@]2(C(=O)O)CC[C@]3(C)C(=CC[C@@H]4[C@@]5(C)CCC(=O)C(C)(C)[C@@H]5CC[C@]43C)[C@H]12` [Ursonic acid], the IC50 in [9] is 6.3 µM; in [10], above 50 µM; in series [11], 4.6 µM; in series [12], 4 µM; in [13], 7.7 µM; in series [14], 5.2 µM.
With `C=C(C)C1CCC2(C(=O)N3CCNCC3)CCC3(C)C(CCC4C5(C)CCC(O)C(C)(C)C5CCC43C)C12` (centres unmarked) [piperazine amide of betulinic acid], in series [15], the cytotoxicity is 0.7 to 7.8 µM.
